Data as given in patent US20220361493A1, “HERBICIDE COMPOSITION” (UPL CORPORATION LIMITED, priority 2019, published 2022).

Experiments:
Test in all cases: Herbicidal efficacy, % weed control
Type in all cases: in vivo
Brachiaria decumbens = conditions: 35 days after administration
Description: (§1) This effectiveness of all treatments can be evaluated according to Colby's equation. In the Colby's equation given below, E is the expected efficacy of combination of Propisochlor and another herbicide, X is the observed efficacy of Propisochlor and Y is the observed efficacy of other herbicide. Observed efficacy values i.e. X and Y are % weed control for Propisochlor and another herbicide. If observed efficacy of combination of Propisochlor and other herbicide is greater than its expected efficacy, then combination is determined to be synergistic. If observed efficacy is equal to or less than expected efficacy, then combination is determined to be non-synergistic.
(§2) Experiments were carried out to evaluate the efficacy of combinations of present invention.
(§3) Herbicidal activity of synergistic mixtures of the combinations of present invention is represented in below tables.

Commelina benghalensis = conditions: 35 days after administration
Description: as §1, §2, §3

Cenchrus echinatus = conditions: 35 days after administration
Description: as §1, §2, §3

Eleusine indica = conditions: 35 days after administration, Table 2
Description: as §1, §2, §3

Ipomoea hederifolia = conditions: 35 days after administration, Table 2
Description: as §1, §2, §3

Spermacoce verticillata = conditions: 35 days after administration, Table 2
Description: as §1, §2, §3

Ipomoea grandifolia = system: Ipomoea grandifolia
Description: as §1, §2, §3

Brachiaria plantaginea = conditions: 35 days after administration, Table 1
Description: as §1, §2, §3

CN(C)c1nc(=O)n(C2CCCCC2)c(=O)n1C [Hexazinone]
% Weed control Brachiaria decumbens (Brachiaria decumbens; 125 g ai/ha, Table 6): 11.3% | % Weed control Commelina benghalensis (Commelina benghalensis; 125 g ai/ha, Table 6): 45.0%

CCOC(=O)[C@@H](C)Oc1ccc(Oc2cnc3cc(Cl)ccc3n2)cc1 [Quizalafop-p-ethyl]
% Weed control Cenchrus echinatus (Cenchrus echinatus; 87.5 g ai/ha, Table 5): 77.5%

CCSC(C)CC1CC(=O)C(/C(CC)=N/OC/C=C/Cl)=C(O)C1 (stereo not drawn) [Clethodim]
% Weed control Cenchrus echinatus (Cenchrus echinatus; 120 g ai/ha, Table 4): 0.0%

Cc1nn(-c2cc(NS(C)(=O)=O)c(Cl)cc2Cl)c(=O)n1C(F)F [Sulfentrazone]
% Weed control Eleusine indica (Eleusine indica; 75 g ai/ha): 90.00% | % Weed control Ipomoea hederifolia (Ipomoea hederifolia; 75 g ai/ha): 98.00% | % Weed control Spermacoce verticillata (Spermacoce verticillata; 75 g ai/ha): 92.25%

CN(C)C(=O)Nc1ccc(Cl)c(Cl)c1 [Diuron]
% Weed control Brachiaria decumbens (Brachiaria decumbens; 1000 g ai/ha, Table 9): 3.8% | % Weed control Brachiaria decumbens (Brachiaria decumbens; 2000 g ai/ha, Table 9): 12.5% | % Weed control Cenchrus echinatus (Cenchrus echinatus; 1000 g ai/ha, Table 9): 5.0% | % Weed control Cenchrus echinatus (Cenchrus echinatus; 2000 g ai/ha, Table 9): 1.3% | % Weed control Commelina benghalensis (Commelina benghalensis; 500 g ai/ha, Table 8): 0% | % Weed control Ipomoea grandifolia (Ipomoea grandifolia; 500 g ai/ha, 21 days after administration, Table 7): 0.0% | % Weed control Ipomoea grandifolia (Ipomoea grandifolia; 1000 g ai/ha, 35 days after administration, Table 9): 0.0% | % Weed control Ipomoea grandifolia (Ipomoea grandifolia; 2000 g ai/ha, 35 days after administration, Table 9): 0.0%

CCCN(CCC)c1c([N+](=O)[O-])cc(C(F)(F)F)cc1[N+](=O)[O-] [Trifluralin]
% Weed control Ipomoea grandifolia (Ipomoea grandifolia; 300 g ai/ha, 35 days after administration, Table 11): 0.0%

CCc1cccc(C)c1N(COC(C)C)C(=O)CCl [Propisochlor]
% Weed control Brachiaria decumbens (Brachiaria decumbens; 540 g ai/ha, Table 9): 68.8% | % Weed control Brachiaria decumbens (Brachiaria decumbens; 1080 g ai/ha, Table 3): 92.0% | % Weed control Brachiaria decumbens (Brachiaria decumbens; 1080 g ai/ha, Table 6): 75.0% | % Weed control Brachiaria decumbens (Brachiaria decumbens; 1200 g ai/ha, Table 1): 85.75% | % Weed control Brachiaria plantaginea (Brachiaria plantaginea; 1200 g ai/ha): 84.50% | % Weed control Cenchrus echinatus (Cenchrus echinatus; 540 g ai/ha, Table 4): 71.3% | % Weed control Cenchrus echinatus (Cenchrus echinatus; 540 g ai/ha, Table 5): 71.3% | % Weed control Cenchrus echinatus (Cenchrus echinatus; 540 g ai/ha, Table 9): 91.8% | % Weed control Cenchrus echinatus (Cenchrus echinatus; 1080 g ai/ha, Table 4): 88.8% | % Weed control Cenchrus echinatus (Cenchrus echinatus; 1080 g ai/ha, Table 5): 88.8% | % Weed control Commelina benghalensis (Commelina benghalensis; 1080 g ai/ha, Table 6): 90.8% | % Weed control Commelina benghalensis (Commelina benghalensis; 1080 g ai/ha, Table 8): 90.8% | % Weed control Commelina benghalensis (Commelina benghalensis; 1080 g ai/ha, Table 10): 90.8% | % Weed control Commelina benghalensis (Commelina benghalensis; 1200 g ai/ha, Table 1): 92.00% | % Weed control Eleusine indica (Eleusine indica; 525 g ai/ha): 99.75% | % Weed control Eleusine indica (Eleusine indica; 675 g ai/ha): 100.00% | % Weed control Ipomoea grandifolia (Ipomoea grandifolia; 540 g ai/ha, 21 days after administration, Table 7): 7.5% | % Weed control Ipomoea grandifolia (Ipomoea grandifolia; 540 g ai/ha, 35 days after administration, Table 9): 0.0% | % Weed control Ipomoea grandifolia (Ipomoea grandifolia; 540 g ai/ha, 35 days after administration, Table 11): 53.8% | % Weed control Ipomoea grandifolia (Ipomoea grandifolia; 1080 g ai/ha, 21 days after administration, Table 7): 22.5% | % Weed control Ipomoea grandifolia (Ipomoea grandifolia; 1080 g ai/ha, 35 days after administration, Table 10): 45.0% | % Weed control Ipomoea grandifolia (Ipomoea grandifolia; 1080 g ai/ha, 35 days after administration, Table 11): 55.50% | % Weed control Ipomoea hederifolia (Ipomoea hederifolia; 525 g ai/ha): 26.25% | % Weed control Ipomoea hederifolia (Ipomoea hederifolia; 675 g ai/ha): 27% | % Weed control Spermacoce verticillata (Spermacoce verticillata; 525 g ai/ha): 92.75% | % Weed control Spermacoce verticillata (Spermacoce verticillata; 675 g ai/ha): 95.75%

C#CCN1C(=O)COc2cc(F)c(N3C(=O)C4=C(CCCC4)C3=O)cc21 [Flumioxazin]
% Weed control Brachiaria decumbens (Brachiaria decumbens; 50 g ai/ha, Table 1): 63.75% | % Weed control Brachiaria plantaginea (Brachiaria plantaginea; 50 g ai/ha): 53.75% | % Weed control Commelina benghalensis (Commelina benghalensis; 50 g ai/ha, Table 1): 90.25%

COC(=O)[C@@H](C)Oc1ccc(Oc2ncc(C(F)(F)F)cc2Cl)cc1 [Haloxyfop-p-methyl]
% Weed control Brachiaria decumbens (Brachiaria decumbens; 62.1 g ai/ha, Table 3): 11.3%

CNC(=O)N(C)c1nnc(C(C)(C)C)s1 [Tebuthiuron]
% Weed control Commelina benghalensis (Commelina benghalensis; 400 g ai/ha, Table 10): 0.0% | % Weed control Ipomoea grandifolia (Ipomoea grandifolia; 400 g ai/ha, 35 days after administration, Table 10): 12.5%
